pIC50: −log10 of the molar value. Values belong to the compound of their own block, whether it stands above or below them.
Key:
[1] = biological target: Vascular endothelial growth factor receptor 2 (Homo sapiens, UniProt P35968); assay: Inhibition of VEGFR2 (unknown origin) by kinase-glo luminescent assay
HepG2 = assay: Antiproliferative activity against human HepG2 cells assessed as inhibition of cell growth by MTT assay; assay type: functional, cell-based
HeLa = assay: Antiproliferative activity against human HeLa cells assessed as inhibition of cell growth by MTT assay; assay type: functional, cell-based
HCT-116 [2] = assay: Antiproliferative activity against human HCT-116 cells assessed as inhibition of cell growth by MTT assay; assay type: functional, cell-based
HT-29 = assay: Antiproliferative activity against human HT-29 cells assessed as inhibition of cell growth by MTT assay; assay type: functional, cell-based
[3] = Cytotoxicity against HEK293 cells assessed as inhibition of cell growth by MTT assay; assay type: toxicity, cell-based; conditions: human
Tubulin (Homo sapiens) = Tubulin (Homo sapiens) (UniProt P68371+Q9H4B7+P0DPH7+P68366+Q13509+Q71U36+P04350+Q3ZCM7+P07437+P68363+Q9BQE3+Q6PEY2+Q13885+Q9BVA1+Q9BUF5); assay: Inhibition of tubulin polymerization (unknown origin) at 10 uM measured every minute for 20 mins by fluorescence based assay relative to control; assay type: protein-complex assay
HCT-116 [4] = assay: Induction of cell cycle arrest in human HCT-116 cells assessed as accumulation of cells at G1/G0 phase at 3 uM incubated for 24 hrs by PI staining based flow cytometry analysis (reference value: 31.33 %); assay type: functional
HCT-116 [5] = assay: Induction of cell cycle arrest in human HCT-116 cells assessed as accumulation of cells at S phase at 0.75 uM incubated for 24 hrs by PI staining based flow cytometry analysis (reference value: 47.56 %); assay type: functional
HCT-116 [6] = assay: Induction of cell cycle arrest in human HCT-116 cells assessed as accumulation of cells at G1/G0 phase at 0.75 uM incubated for 24 hrs by PI staining based flow cytometry analysis (reference value: 31.33 %); assay type: functional
HCT-116 [7] = assay: Induction of cell cycle arrest in human HCT-116 cells assessed as accumulation of cells at G1/G0 phase at 1.5 uM incubated for 24 hrs by PI staining based flow cytometry analysis (reference value: 31.33 %); assay type: functional
HCT-116 [8] = assay: Induction of cell cycle arrest in human HCT-116 cells assessed as accumulation of cells at S phase at 3 uM incubated for 24 hrs by PI staining based flow cytometry analysis (reference value: 47.56 %); assay type: functional
HCT-116 [9] = assay: Induction of cell cycle arrest in human HCT-116 cells assessed as accumulation of cells at G2/M phase at 0.75 uM incubated for 24 hrs by PI staining based flow cytometry analysis (reference value: 21.10 %); assay type: functional
HCT-116 [10] = assay: Induction of cell cycle arrest in human HCT-116 cells assessed as accumulation of cells at G2/M phase at 3 uM incubated for 24 hrs by PI staining based flow cytometry analysis (reference value: 21.10 %); assay type: functional
HCT-116 [11] = assay: Induction of cell cycle arrest in human HCT-116 cells assessed as accumulation of cells at S phase at 1.5 uM incubated for 24 hrs by PI staining based flow cytometry analysis (reference value: 47.56 %); assay type: functional
HCT-116 [12] = assay: Induction of cell cycle arrest in human HCT-116 cells assessed as accumulation of cells at G2/M phase at 1.5 uM incubated for 24 hrs by PI staining based flow cytometry analysis (reference value: 21.10 %); assay type: functional
Tubulin = assay: Inhibition of tubulin polymerization (unknown origin) measured every minute for 20 mins by fluorescence based assay; assay type: protein-complex assay, Homo sapiens

Sequence of Vascular endothelial growth factor receptor 2 (P35968 whole entry): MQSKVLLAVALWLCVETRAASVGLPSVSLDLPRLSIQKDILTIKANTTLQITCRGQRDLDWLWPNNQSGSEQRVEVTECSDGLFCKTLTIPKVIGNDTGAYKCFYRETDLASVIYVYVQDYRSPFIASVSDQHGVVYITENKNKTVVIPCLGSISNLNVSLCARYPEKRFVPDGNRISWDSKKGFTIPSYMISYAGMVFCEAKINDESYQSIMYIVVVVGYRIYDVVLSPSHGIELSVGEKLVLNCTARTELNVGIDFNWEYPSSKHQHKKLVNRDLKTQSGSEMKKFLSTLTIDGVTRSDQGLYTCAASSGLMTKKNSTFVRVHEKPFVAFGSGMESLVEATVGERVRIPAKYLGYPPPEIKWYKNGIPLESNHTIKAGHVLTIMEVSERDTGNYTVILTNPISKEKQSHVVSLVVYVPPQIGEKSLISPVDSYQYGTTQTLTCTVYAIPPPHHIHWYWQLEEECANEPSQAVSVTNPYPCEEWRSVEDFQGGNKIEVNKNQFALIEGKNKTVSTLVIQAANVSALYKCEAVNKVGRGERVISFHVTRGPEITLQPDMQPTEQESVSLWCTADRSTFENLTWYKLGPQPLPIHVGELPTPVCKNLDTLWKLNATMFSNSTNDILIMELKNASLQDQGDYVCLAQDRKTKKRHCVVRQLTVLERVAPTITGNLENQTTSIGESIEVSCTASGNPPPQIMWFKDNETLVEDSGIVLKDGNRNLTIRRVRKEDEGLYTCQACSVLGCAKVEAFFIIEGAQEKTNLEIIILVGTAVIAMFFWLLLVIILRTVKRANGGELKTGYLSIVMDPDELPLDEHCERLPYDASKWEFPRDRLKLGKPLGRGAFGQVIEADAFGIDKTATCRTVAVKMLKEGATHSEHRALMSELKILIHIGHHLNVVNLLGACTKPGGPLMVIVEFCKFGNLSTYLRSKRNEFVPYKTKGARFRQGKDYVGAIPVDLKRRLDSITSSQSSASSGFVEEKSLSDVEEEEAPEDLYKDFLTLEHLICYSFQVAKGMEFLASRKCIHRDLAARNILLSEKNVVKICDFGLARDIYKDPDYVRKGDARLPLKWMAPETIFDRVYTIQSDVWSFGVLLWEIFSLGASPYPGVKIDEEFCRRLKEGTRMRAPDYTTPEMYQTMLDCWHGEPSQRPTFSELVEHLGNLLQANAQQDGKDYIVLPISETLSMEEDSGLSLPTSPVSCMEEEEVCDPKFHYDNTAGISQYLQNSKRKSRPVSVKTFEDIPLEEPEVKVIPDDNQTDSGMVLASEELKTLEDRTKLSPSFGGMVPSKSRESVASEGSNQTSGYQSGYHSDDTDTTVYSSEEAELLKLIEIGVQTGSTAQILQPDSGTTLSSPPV

pIC50 [1]: 7.15
SMILES: COc1ccc(/C=N/n2c(SCC(=O)c3ccc(Cl)cc3)nnc2-c2cc3ccccc3[nH]2)cc1

pIC50 (HepG2): 4.04
SMILES: COc1ccc(C(=O)CSc2nnc(-c3ccccn3)n2N2C(=O)c3ccccc3C2=O)cc1

pIC50 (HepG2): 4.19
SMILES: Cc1ccc(C(=O)CSc2nnc(-c3ccccn3)n2N2C(=O)c3ccccc3C2=O)cc1

pIC50 (HeLa): 4.79
pIC50 (HCT-116 [2]): < 4.00
pIC50 (HT-29): 4.12
inhibition (Tubulin (Homo sapiens)): 19%
SMILES: COc1cc(-c2nnc(SCC(=O)c3ccc(C)cc3)n2N2C(=O)c3ccccc3C2=O)cc(OC)c1OC
pIC50 [3]: < 4.00

pIC50 (HepG2): < 4.00
SMILES: CC(=O)CSc1nnc(-c2cnccn2)n1N1C(=O)c2ccccc2C1=O

pIC50 (HepG2): < 4.00
SMILES: COc1cc(Cc2nnc(SCC(=O)c3ccc(C)cc3)n2N2C(=O)c3ccccc3C2=O)cc(OC)c1OC

pIC50 (HepG2): 4.21
SMILES: COc1ccc(C(=O)CSc2nnc(Cc3cc(OC)c(OC)c(OC)c3)n2N2C(=O)c3ccccc3C2=O)cc1

pIC50 (HepG2): < 4.00
SMILES: O=C(CSc1nnc(-c2ccccn2)n1N1C(=O)c2ccccc2C1=O)C1CC1

SMILES: COc1ccc(/C=C\c2cc(OC)c(OC)c(OC)c2)cc1O [COMBRETASTATIN A4]
pIC50 (HCT-116 [2]): 5.96

pIC50 (HepG2): 4.45
SMILES: COc1cc(Cc2nnc(SCC(=O)c3ccc(C(F)(F)F)cc3)n2N2C(=O)c3ccccc3C2=O)cc(OC)c1OC

pIC50 (HeLa): 4.53
pIC50 (HCT-116 [2]): 5.12
pIC50 (HT-29): 4.92
pIC50 (HepG2): 4.88
SMILES: COc1cc(COc2nnc(SCC(=O)c3ccc(C)cc3)n2N)cc(OC)c1OC
pIC50 [3]: < 4.00

pIC50 (HeLa): 4.93
pIC50 (HCT-116 [2]): 5.40
pIC50 (HT-29): 4.97
pIC50 (HepG2): 4.79
SMILES: COc1ccc(C(=O)CSc2nnc(Cc3cc(OC)c(OC)c(OC)c3)n2N)cc1
pIC50 [3]: < 4.00

pIC50 (HepG2): 4.15
SMILES: COc1cc(Cc2nnc(SCC(=O)c3ccccc3)n2N2C(=O)c3ccccc3C2=O)cc(OC)c1OC

pIC50 (HepG2): < 4.00
SMILES: O=C(CSc1nnc(-c2ccccn2)n1N1C(=O)c2ccccc2C1=O)c1ccccc1

pIC50 (HepG2): < 4.00
SMILES: O=C(CSc1nnc(-c2cnccn2)n1N1C(=O)c2ccccc2C1=O)C1CC1

pIC50 (HepG2): < 4.00
SMILES: O=C(CSc1nnc(-c2cnccn2)n1N1C(=O)c2ccccc2C1=O)c1ccc(Cl)cc1

pIC50 (HepG2): 4.03
SMILES: O=C(CSc1nnc(-c2ccccn2)n1N1C(=O)c2ccccc2C1=O)c1ccc(C(F)(F)F)cc1

pIC50 (HeLa): < 4.00
pIC50 (HCT-116 [2]): < 4.00
pIC50 (HT-29): 4.17
pIC50 (HepG2): 4.59
SMILES: COc1ccc(C(=O)CSc2nnc(OCc3cc(OC)c(OC)c(OC)c3)n2N)cc1
pIC50 [3]: < 4.00

pIC50 (HeLa): 5.04
pIC50 (HCT-116 [2]): 5.84
pIC50 (HT-29): 6.21
pIC50 (HepG2): 5.44
inhibition (Tubulin (Homo sapiens)): 36%
pIC50 (Tubulin): 4.90
SMILES: COc1cc(Cc2nnc(SCC(=O)c3ccc(C)cc3)n2N)cc(OC)c1OC
Activity (HCT-116 [4]): 11.13%
Activity (HCT-116 [5]): 36.97%
Activity (HCT-116 [6]): 29.3%
Activity (HCT-116 [7]): 33.76%
Activity (HCT-116 [8]): 40.12%
Activity (HCT-116 [9]): 33.73%
Activity (HCT-116 [10]): 48.75%
Activity (HCT-116 [11]): 30.21%
pIC50 [3]: < 4.00
Activity (HCT-116 [12]): 36.03%

pIC50 (HepG2): 4.05
SMILES: Cc1ccc(C(=O)CSc2nnc(-c3cnccn3)n2N2C(=O)c3ccccc3C2=O)cc1

pIC50 (HepG2): < 4.00
SMILES: CC(=O)CSc1nnc(-c2ccccn2)n1N1C(=O)c2ccccc2C1=O

pIC50 (HepG2): 4.10
SMILES: COc1cc(COc2nnc(SCC(=O)c3ccc(C)cc3)n2N2C(=O)c3ccccc3C2=O)cc(OC)c1OC

pIC50 (HepG2): 4.02
SMILES: COc1cc(Cc2nnc(SCC(=O)c3ccc(Cl)cc3)n2N2C(=O)c3ccccc3C2=O)cc(OC)c1OC

pIC50 (HepG2): 4.11
SMILES: O=C(CSc1nnc(-c2ccccn2)n1N1C(=O)c2ccccc2C1=O)c1ccc(Cl)cc1

pIC50 (HepG2): < 4.00
SMILES: COc1cc(COc2nnc(SCC(=O)c3ccc(Cl)cc3)n2N2C(=O)c3ccccc3C2=O)cc(OC)c1OC

pIC50 (HepG2): < 4.00
SMILES: O=C(CSc1nnc(-c2cnccn2)n1N1C(=O)c2ccccc2C1=O)c1ccc(C(F)(F)F)cc1

pIC50 (HepG2): < 4.00
SMILES: COc1cc(Cc2nnc(SCC(=O)C3CC3)n2N2C(=O)c3ccccc3C2=O)cc(OC)c1OC

pIC50 (HepG2): < 4.00
SMILES: COc1cc(Cc2nnc(SCC(C)=O)n2N2C(=O)c3ccccc3C2=O)cc(OC)c1OC

Reference: ChEMBL document CHEMBL5143659, “Concise synthesis and preliminary biological evaluation of new triazolylthioacetone derivatives bearing pyridine, pyrazine, and 3,4,5-trimethoxybenzyl fragment” (Bioorg Med Chem Lett, 2022)
